In the NIST ThermoML archive (doi:10.1021/je060271a):
Several values for one entry are separate records, joined by “and”; a condition that tells them apart may be missing. Identical values can stand only once.

Conditions: 343.15 K, Liquid, Vibrating tube method

CCCCCCC(=O)OCC(COC(=O)CCCCCC)(COC(=O)CCCCCC)COC(=O)CCCCCC [pentaerythritol tetraheptanoate]
Conditions	mass density
4113.8 kPa	943.7 kg/m3
4138.8 kPa	943.6 kg/m3
4164 kPa	943.7 kg/m3
4194.7 kPa	943.7 kg/m3
4220.3 kPa	943.6 kg/m3
4246.6 kPa	943.7 kg/m3
4273.8 kPa	943.8 kg/m3
4305 kPa	943.9 kg/m3
4331.3 kPa	943.9 kg/m3
4358.7 kPa	944 kg/m3
4390.2 kPa	943.8 kg/m3
4413.2 kPa	943.8 kg/m3
4545.2 kPa	943.9 kg/m3
4545.5 kPa	944.1 kg/m3
4546 kPa	943.9 kg/m3
4546.2 kPa	944 kg/m3
4546.5 kPa	944 kg/m3
4547.2 kPa	944 kg/m3
4547.4 kPa	944.1 kg/m3
4547.6 kPa	944 kg/m3
4547.8 kPa	944.1 kg/m3
4547.9 kPa	944.1 kg/m3
4548.3 kPa	944 kg/m3 and 944.1 kg/m3
4548.4 kPa	944 kg/m3 and 943.9 kg/m3
4548.6 kPa	944 kg/m3
4548.8 kPa	944 kg/m3 and 944.1 kg/m3
4549 kPa	943.9 kg/m3 and 944 kg/m3
4549.1 kPa	944.2 kg/m3 and 944.1 kg/m3 and 944 kg/m3
4549.3 kPa	944 kg/m3 and 944.1 kg/m3 and 943.9 kg/m3
4549.5 kPa	944 kg/m3
4549.7 kPa	944.1 kg/m3 and 944 kg/m3
4549.8 kPa	944.1 kg/m3
4549.9 kPa	944.1 kg/m3 and 944 kg/m3
4550 kPa	944 kg/m3
4550.1 kPa	944 kg/m3 and 944.1 kg/m3
4550.2 kPa	944.1 kg/m3 and 944 kg/m3 and 943.9 kg/m3
4550.4 kPa	944 kg/m3
4550.5 kPa	944 kg/m3
4550.7 kPa	944.1 kg/m3
4550.9 kPa	944 kg/m3 and 944.2 kg/m3
4551 kPa	944 kg/m3 and 944.1 kg/m3
4551.2 kPa	944.1 kg/m3 [middle of 4 runs]
4551.4 kPa	944 kg/m3 and 944.1 kg/m3
4551.5 kPa	944 kg/m3
4551.7 kPa	944.1 kg/m3 and 944 kg/m3
4551.9 kPa	944 kg/m3 and 944.1 kg/m3
4552.1 kPa	944 kg/m3 and 944.1 kg/m3
4552.2 kPa	944.1 kg/m3 and 944 kg/m3 and 944.2 kg/m3
4552.3 kPa	944.1 kg/m3
4552.4 kPa	944 kg/m3 and 944.1 kg/m3
4552.6 kPa	944 kg/m3 and 944.1 kg/m3
4552.8 kPa	944.1 kg/m3 and 943.9 kg/m3 and 944 kg/m3
4553 kPa	944 kg/m3 and 943.9 kg/m3 and 944.1 kg/m3
4553.1 kPa	944.1 kg/m3 [middle of 4 runs]
4553.3 kPa	944 kg/m3 and 944.1 kg/m3
4553.5 kPa	944.1 kg/m3 and 944 kg/m3
4553.7 kPa	944 kg/m3 and 944.1 kg/m3
4553.8 kPa	944 kg/m3 and 944.1 kg/m3
4554 kPa	944 kg/m3 and 944.1 kg/m3
4554.2 kPa	944.1 kg/m3 and 944 kg/m3
4554.3 kPa	944 kg/m3
4554.5 kPa	944.1 kg/m3 and 944 kg/m3
4554.7 kPa	944.1 kg/m3 and 943.9 kg/m3
4554.9 kPa	944.2 kg/m3 and 944 kg/m3 and 943.9 kg/m3
4555 kPa	944 kg/m3 and 944.1 kg/m3
4555.2 kPa	944 kg/m3 and 944.1 kg/m3
4555.4 kPa	944.1 kg/m3 and 944 kg/m3 and 943.9 kg/m3
4555.5 kPa	944.2 kg/m3 and 944 kg/m3 and 944.1 kg/m3
4555.7 kPa	944 kg/m3
4555.9 kPa	944 kg/m3 and 944.1 kg/m3
4556.1 kPa	944 kg/m3
4556.2 kPa	944 kg/m3 and 944.1 kg/m3
4557.6 kPa	944 kg/m3
4559 kPa	944.1 kg/m3
4559.2 kPa	944 kg/m3 and 943.9 kg/m3
4559.3 kPa	943.9 kg/m3
4559.7 kPa	944.1 kg/m3 and 944.2 kg/m3
4559.9 kPa	944.1 kg/m3
4560 kPa	944.1 kg/m3
4560.9 kPa	944.1 kg/m3
4564.5 kPa	944 kg/m3
4567.8 kPa	944 kg/m3
4571.1 kPa	944.2 kg/m3
4574.9 kPa	944 kg/m3
4578.4 kPa	944.1 kg/m3
4581.7 kPa	944 kg/m3
4584.6 kPa	943.9 kg/m3
4588.4 kPa	944 kg/m3
4591.7 kPa	944.1 kg/m3
4595.2 kPa	944.1 kg/m3
4598.3 kPa	944.1 kg/m3
4602.3 kPa	944.1 kg/m3
4605.4 kPa	943.9 kg/m3
4608.7 kPa	944.1 kg/m3
4612.7 kPa	944.2 kg/m3
4616.3 kPa	944 kg/m3
4619.4 kPa	944.1 kg/m3
4622.7 kPa	944.1 kg/m3
4626.7 kPa	944.2 kg/m3
4630 kPa	944 kg/m3
4633.1 kPa	944.1 kg/m3
4637.3 kPa	944.2 kg/m3
4640.7 kPa	944.1 kg/m3
4644 kPa	944.1 kg/m3
4647.3 kPa	944.1 kg/m3
4651.3 kPa	944 kg/m3
4654.6 kPa	944.1 kg/m3
4658.4 kPa	944 kg/m3
4662 kPa	944.1 kg/m3
4665.5 kPa	944.2 kg/m3
4669.3 kPa	944.1 kg/m3
